In patent EP4711372A1, “CRYSTAL FORM OF HETEROCYCLIC COMPOUND, SALT THEREOF, CRYSTAL FORM OF SALT THEREOF, AND USE” (Hubei Bio-Pharmaceutical Industrial Technological Institute …, priority 2023, dated 2024):

How the values were obtained:
[1] = system: IBD in mice; experiment: Efficacy on IBD in mice (DSS-induced); format: in vivo, C57BL/6 mice; details: for CL (colon length) / CL/CW/BW / CW (colon weight) / DAI / body weight / inflammatory cell infiltration score (histopathological examination of colon tissues) / tissue injury score (histopathological examination of colon tissues): compared with G2 model group; for Colon length CL / Colon weight CW: day 0 to day 9, necropsy day 10
Experimental: The mice in G2 to G6 were given 2% DSS aqueous solution on day 0 to day 6, normal water on […], vehicle/positive/test substance on day 0 to day 9, and euthanized on day 10 for necropsy. Colon weight (CW) and colon length (CL) were measured and colon tissues […] were subjected to histopathological examination.

[2] = Pharmacokinetics in mice (oral gavage); format: in vivo; details: mouse, plasma, male CD-1 mice, 10 mg/kg
Experimental: The pharmacokinetic properties of the compounds obtained in Example 1 in mice were determined with reference to the following experimental methods.
Three male CD-1 mice were administered by oral gavage at a dose of 10 mg/kg, and the vehicle was 5% DMSO + 10% Solutol + 85% Saline. The mice were fasted overnight, and the time points of blood collection were before administration and at 15 minutes, 30 minutes, 1 hour, 2 hours, 4 hours, 8 hours, and 24 hours after administration. Blood samples were centrifuged at 6,800 g for 6 minutes at 2 to 8°C, and plasma was collected and stored at - 80°C. 10 µL of plasma at each time point was taken and added with 200 µL of methanol containing 100 ng/mL internal standard. The mixture was vortexed, mixed well, and centrifuged at 18,000 g for 7 minutes at 2 to 8°C. 200 µL of the mixture was transferred to a 96-well injection plate for LC-MS/MS quantitative analysis. The main pharmacokinetic parameters were analyzed using WinNonlin 7.0 software with non-compartmental model.

[3] = molecular target: T1, 15-PGDH (Homo sapiens, UniProt P15428); experiment: 15-PGDH enzyme inhibition assay (fluorescence, NAD+/PGE2); format: biochemical; details: 15-PGDH inhibition
T1 construct: purchased R&D Systems 5660-DH-010
T1 sequence (P15428 1-266): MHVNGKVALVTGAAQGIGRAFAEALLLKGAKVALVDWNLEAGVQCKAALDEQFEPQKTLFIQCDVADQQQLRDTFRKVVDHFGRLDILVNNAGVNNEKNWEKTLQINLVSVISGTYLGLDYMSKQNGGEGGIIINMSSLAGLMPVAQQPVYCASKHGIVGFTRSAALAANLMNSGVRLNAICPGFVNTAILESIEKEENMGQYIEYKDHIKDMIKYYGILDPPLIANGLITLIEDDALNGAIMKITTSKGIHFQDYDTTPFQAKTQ
Experimental: 15-PGDH (R&D Systems, Cat. No. 5660-DH-010) was prepared to twice the final concentration, i.e., 30 nM, using Assay Buffer (50 mM Tris-HCl, pH 7.5, 0.01% Tween 20 by volume). 15-PGDH was then added to a 384-well white plate (Cisbio Bioassays, Cat. No. 66PL384025) at 8 µL/well. Negative control wells (with Assay Buffer only and without enzyme) were set. The compound was then prepared to 4 times the final concentration using Assay Buffer, i.e., diluted 3-fold to 10 concentrations starting from 4000 nM. The compound was added to the above white plate at 4 µL/well, mixed well, centrifuged at 1000 rpm for 1 minute, and incubated at 25°C for 10 minutes. Both positive control wells (with 15-PGDH only) and negative control wells (without 15-PGDH) were set. A mixture of NAD^+ (Select, Cat. No. S2518) and PGE2 (R&D Systems, Cat. No.:2296110) was then prepared using Assay Buffer. NAD^+ and PGE2 were prepared to four times their final concentrations, i.e., 2 mM and 0.12 mM, respectively, using Assay Buffer. The mixture was then added to the above white plate at 4 µL/well, mixed well, centrifuged at 1000 rpm for 1 minute, and incubated at 25°C for 30 minutes for the reaction. The fluorescence was measured at an excitation wavelength of 340 nm and an emission wavelength of 485 nm using a TECAN SPARK 20M microplate reader. The IC50 value was calculated using four-parameter fitting with GraphPad Prism 8.0.

[4] = system: mouse IPF treatment model; experiment: Efficacy test on mouse IPF treatment model (Bleomycin-induced); format: in vivo, mice; details: mean, oral gavage, 14 consecutive days from day 7
Experimental: (§1) Male mice were adaptively fed for 1 to 2 weeks and after reaching the standard weight (25 g), the IPF model (idiopathic pulmonary fibrosis model) was induced with a certain dose of Bleomycin. On the day of modeling, the animals were randomly divided into a model group and an administration group according to their weight, in which the administration groups were administered Nintedanib (60 mg/kg, qd), low-dose compound I-3B obtained in Example 1 (1 mg/kg, bid), and high-dose compound I-3B obtained in Example 1 (2.5 mg/kg, bid) by oral gavage for 14 consecutive days starting from day 7 while the vehicle control group was administered blank vehicle. During the administration period, the animals were weighed twice a week. At the end of the last day of administration, the animals were euthanized. The lungs were removed from the thyroid cartilage (without perfusion), slowly perfused with 10% formalin until both lungs were filled, and fixed in 10% formalin 5 to 10 times the volume of the tissues after the trachea was ligated. The left lung tissues were embedded in paraffin wax, sectioned, and stained with HE and Masson Trichrome. The sections were subjected to panoramic scanning using a Hamamatsu NanoZoomer Digital Pathology (S210) slide scanner for pathological analysis.

[5] = system: mouse IPF prevention model; experiment: Efficacy test on mouse IPF prevention model (Bleomycin-induced); format: in vivo, mice; details: mean; compound I-3B 2.5 mg/kg bid, oral gavage, 21 consecutive days
Experimental: as §1, with “once a day (qd))” for “qd), low-dose compound I-3B obtained in Example 1 (1 mg/kg, bid),”, “and” for “and high-dose”, “twice a day (bid))” for “bid)”, “21” for “14”, “days” for “days starting from day 7”, “every 3 days.” for “twice a week.”

SMILES: Cn1nc2cc(N3C[C@H]4C[C@H]4c4cc(C(=O)N5CCC(F)(F)CC5)cnc43)ccn2c1=O (single isomer, unassigned) [compound I-3B]
- IBD symptoms and tissue injury in mice ([1]; 2.5 mg/kg and 5 mg/kg, efficacy better than that of the positive control): significantly improve
- CL (colon length) ([1]; G4, 2.5 mg/kg-bid): significant increase
- CL/CW/BW ([1]; G4, 2.5 mg/kg-bid): significant decrease
- CW (colon weight) ([1]; G4, 2.5 mg/kg-bid): significant decrease
- DAI ([1]; G4, 2.5 mg/kg-bid): significant decrease
- body weight ([1]; G4, 2.5 mg/kg-bid): increase
- inflammatory cell infiltration score (histopathological examination of colon tissues) ([1]; G4, 2.5 mg/kg-bid): significant decrease
- tissue injury score (histopathological examination of colon tissues) ([1]; G4, 2.5 mg/kg-bid): significant decrease
- CL (colon length) ([1]; G5, 5 mg/kg-bid): significant increase
- CL/CW/BW ([1]; G5, 5 mg/kg-bid): significant decrease
- CW (colon weight) ([1]; G5, 5 mg/kg-bid): significant decrease
- DAI ([1]; G5, 5 mg/kg-bid): significant decrease
- body weight ([1]; G5, 5 mg/kg-bid): significant increase
- inflammatory cell infiltration score (histopathological examination of colon tissues) ([1]; G5, 5 mg/kg-bid): significant decrease
- tissue injury score (histopathological examination of colon tissues) ([1]; G5, 5 mg/kg-bid): significant decrease
- Colon length CL ([1]; high-dose group (5 mg/kg)): 6.50 cm
- Colon weight CW ([1]; high-dose group (5 mg/kg)): 0.16 g
- Colon length CL ([1]; low-dose group (2.5 mg/kg)): 6.67 cm
- Colon weight CW ([1]; low-dose group (2.5 mg/kg)): 0.17 g
- AUC(0-t) [2]: 33200 ng·h/mL
- Cmax [2]: 4480 ng/mL
- IC50 [3]: 3.58 nM
- Total pulmonary fibrosis score ([4]; high-dose 2.5 mg/kg bid): 2.6
- Total pulmonary fibrosis score ([4]; low-dose 1 mg/kg bid): 2.74
- Total pulmonary fibrosis score [5]: 3.34
